Test results from patent US8404665B2, “In vivo use of glutathione S-transferase activated nitric oxide donors” (University of Utah Research Foundation, priority 2002, dated 2013).
“Also recorded” adds a separate entry of the source.

Assays:
[1] = tested on: bacterial, viral, fungal or parasitic infection; experiment: Treatment of bacterial, viral, fungal or parasitic infection in an individual; assay type: in vivo; settings: therapeutically effective amount
Experimental: An individual with a bacterial, viral, fungal or parasitic infection is administered a therapeutically effective amount of JS-K to treat such infection.

[2] = tested on: HL-60 cells; experiment: Combination treatment: JS-K pretreatment then etoposide or daunorubicin, MTT; assay type: cell-based, human; settings: HL-60, JS-K pretreatment (0.25 μM)
Experimental: Combination treatment. For combined drug treatment, HL-60 cell lines were pretreated with JS-K (0.25 μM) for 6 h in RPMI 1640 at 37° C. The JS-K-containing culture medium was then removed and replaced with fresh RPMI-1640. Three different concentrations of either etoposide (0.2, 0.3 and 0.4 μM) or daunorubicin (5, 10 and 50 nM) were added to the pretreated HL-60 cells. The cells were incubated at 37° C. for additional 48 hours. Solution of 3-[4,5-dimethylthiazol-2-yl]-2,5-[…] (MTT) tetrazolium salt (1 mg/ml) was added to the cells. The cells were incubated again for 3 h to allow for MTT metabolism to formazan by the succinate-tetrazolim reductase system active only in viable cells. A solution of 0.04 N HCl in isopropyl alcohol was added to stop the MTT assay. The supernatant was then aspirated and 150 μl of trituration was added to dissolve the water-insoluble blue formazan. The optical densities were read on a spectrophotometric plate reader at a single wavelength of 570 nm. The absorbance for control cells was defined as an MTT activity of 100%.

[3] = tested on: PPC-1 cells; experiment: Subcutaneous PPC-1 tumor implants in NOD/SCID mice; assay type: in vivo
Experimental: To study the in vivo antineoplastic potency of JS-K, NOD/SCID mice were injected in the flanks subcutaneously with HL-60 or PPC-1 cells (2.5×10^6 cells per flank). When subcutaneous tumors were palpable, treatment with JS-K or an equal volume of vehicle (20% dimethyl sulfoxide in PBS) was started using the indicated doses and route. Tumor size was measured daily or every other day using a Vernier caliper. Tumor volume was calculated using the formula: width×length×[(width+length)/2]×0.5236. Fifteen to 20 days after tumor cell implantation, animals were sacrificed by CO2 inhalation and tumors were collected for histochemical analysis.
Histological Analysis of Tumors. After sacrifice, subcutaneous tumors were dissected out, fixed in 10% formaldehyde and imbedded in paraffin. Four-um sections were cut and stained with Hematoxylin and Eosin.
To determine if JS-K is cytotoxic to solid tumors, the effect of JS-K on the in vitro and in vivo growth of the prostate cancer cell line PPC-1 was studied. Similar to studies in HL-60 cells, indications are that JS-K appears to be a potent growth inhibitor for prostate cancer cells in vitro and in vivo. For the in vitro experiments, JS-K was added to PPC-1 cells at 1, 2, 3, 4, and 5 μM concentrations. […] For the in vivo experiments, NOD/SCID mice were inoculated subcutaneously with […] PPC-1 cells, as described above. When the subcutaneous tumors were measurable, JS-K was administered intravenously at a dose of 4 μmol/kg or an equal volume of vehicle 3 times per week.
In order to determine whether JS-K inhibits the in vivo growth of solid tumor cells, NOD/SCID mice were implanted with 2.5×10^6 PPC-1 (prostate carcinoma) cells and treated with 4 μmol/kg JS-K or an equal volume of vehicle intravenously 3 times a week. Similar to the observation with HL-60 cells, JS-K treatment appeared to inhibit the growth of PPC-1 cells in vivo. Nineteen days after start of therapy, subcutaneous tumor implant volumes were 0.368±0.082 and 0.107±0.053 cm^3 (P=0.0073) in vehicle and JS-K-treated animals, respectively. […]

[4] = Reactivity of JS-K with GSH (HPLC-MS, pseudo-first order kinetics); assay type: physicochemical; settings: 37° C.
Experimental: Chromatography and Mass Spectrometry. High Performance Liquid Chromatography (HPLC) separations were carried out with a Phenomenex Luna 5 u C18(2) column (Torrance, Calif.) using a gradient of acetonitrile:water (each containing 0.1% formic acid) at a flow rate of 1 ml/min (% acetonitrile: 25% for 0-5 min followed by a linear program to 70% at 15 min).
HPLC-Mass Spectrometry (MS) studies were performed on an Agilent Capillary Series 1100 LC/MSD Ion Trap mass spectrometer with electrospray ionization in the positive ion mode (CITY, STATE). Separations were effected as above, except that the flow rate was 15 ul/min and the gradient was 10% acetonitrile for 0-5 min followed by a linear program to 70% at 15 min.
The diazeniumdiolate ion appears to resemble chloride as a leaving group in SNAr reactions (Saavedra, J. E. et al. (2001) J. Org. Chem. 66: 3090-3098). Since 1-chloro-2,4-dinitrobenzene is believed to react with GSH, it was anticipated that JS-K would be similarly converted to DNP-SG. This was indicated by HPLC-MS where there appeared to be an 85% conversion of JS-K to DNP-SG within a 30-min incubation period at 37° C. in pH 7.4 phosphate buffer. Similar results appeared in a RPMI-1640 cell culture medium. Pseudo-first order kinetic plots for the reaction of GSH with JS-K in 0.1 M phosphate buffer (pH 7.4) were obtained with GSH (1-5 mM) in large excess of the substrate. Excellent first-order behavior was observed over several half-lives, and measured first-order rate constants appeared to show a linear dependence on [GSH]. The slope and y-intercept of the line yielded values for the second-order [k2=(1.02±0.04) M^−1 s^−1] and first order [k1=(4±12)×10^−5 s^−1] rate constants for the reactions of JS-K with GSH and water, respectively, at 37° C. in 0.1 M phosphate buffer, pH 7.4. The ultraviolet spectral changes accompanying the reaction in a second cell culture medium (Dulbecco's Modified Eagle's Medium) appeared to confirm the above stated kinetic rate constants.

[5] = tested on: HL-60 cells; experiment: NO generation (nitrate and nitrite) by HL-60 cells in serum-free PBS; assay type: cell-based, human
Experimental: Production of NO was then determined by measuring levels of nitrate and nitrite, byproducts of NO oxidation. Serum-free buffer was used to eliminate the confounding effects of nitrates in the serum or medium. When added to HL-60 cells suspended in serum-free phosphate buffered saline (PBS) buffer at a concentration of 10 μM, JS-K appeared to generate NO in a time-dependent fashion with peak levels at 24 hours. […] For this, JS-K was added to HL-60 cells suspended in serum-free PBS at a concentration of 20 μM and nitrate+nitrite levels in the supernatants were determined 24 hours post-addition.

[6] = 4 μmol/kg i.v. 3 times per week

CCOC(=O)N1CCN(/[N+]([O-])=N/Oc2ccc([N+](=O)[O-])cc2[N+](=O)[O-])CC1 [JS-K, O^2-(2,4-dinitrophenyl) 1-[(4-ethoxycarbonyl)piperazin-1-yl]diazen-1-ium-1,2-diolate]
effect on infection [1]: causes elimination of such infection | effect of JS-K pretreatment on daunorubicin and etoposide [2]: additive effect; also recorded: significantly enhanced efficacy of daunorubicin and etoposide | prostate cancer growth in vivo [3, 6]: significant delay in prostate cancer growth in vivo | tumor histology (necrosis) [3, 6]: high degree of extensive tumor necrosis | subcutaneous tumor implant volume ([3]; nineteen days after start of therapy, vehicle 0.368±0.082, P=0.0073): 0.107±0.053 cm^3 | first order rate constant k1, reaction with water (y-intercept) ([4]; 0.1 M phosphate buffer, pH 7.4): (4±12)×10^−5 s^−1 | second-order rate constant k2, reaction with GSH ([4]; 0.1 M phosphate buffer, pH 7.4): 1.02 ± 0.04 M⁻¹ s⁻¹ | conversion of JS-K to DNP-SG ([4]; within 30-min incubation, pH 7.4 phosphate buffer): 85% | time of peak NO levels (nitrate and nitrite) ([5]; 10 μM, HL-60 cells in serum-free PBS): 24 h | extent of NO release versus cell number ([5]; 20 μM, nitrate+nitrite in supernatants 24 hours post-addition): positively correlated with the cell number | activation of JS-K and NO release by supernatants from HL-60 cells ([5]; cell supernatants only): did not induce activation of JS-K and NO release
